According to PubChem BioAssay AID1259411 (Chemical Carcinogenesis Research Information System (CCRIS), 2018):
The source made the active and inactive calls. How the calls were made is not given here.

Test system: rodent carcinogenicity bioassays, tumor incidence
Experiment: CCRIS carcinogenicity studies
Procedure, shortened: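 NCI-built, expert-reviewed records of carcinogenicity and related test outcomes (mutagenicity, tumor promotion/inhibition) compiled from published and report sources, historical span 1985-2011, not updated.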

Compound: O=C(O)CNCP(=O)(O)O
- carcinogen call (Species: RAT, Strain/Sex: WISTAR/FEMALE, Route: ORAL, Dose: 0, 300, 900, 2700 MG/L IN DRINKING WATER FOR 2 YR (STUDY DURATION: 2 YR), Dose: 0, 300, 900, 2700 MG/L IN DRINKING WATER FOR 2 YR (STUDY DURATION: 2 YR)): inactive; negative
- carcinogen call (Species: RAT, Strain/Sex: WISTAR/MALE, Route: ORAL, Dose: 0, 300, 900, 2700 MG/L IN DRINKING WATER FOR 2 YR (STUDY DURATION: 2 YR), Dose: 0, 300, 900, 2700 MG/L IN DRINKING WATER FOR 2 YR (STUDY DURATION: 2 YR)): inactive; negative
- carcinogen call (Species: Rat, Strain/Sex: Sprague-Dawley/Female (50/Group), Route: Oral, Dose: 0, 2000, 8000, 20,000 ppm of 96.5% glyphosate, isopropylamine salt in diet for 24 mo, study duration 24 mo, Dose: 0, 2000, 8000, 20,000 ppm of 96.5% glyphosate, isopropylamine salt in diet for 24 mo, study duration 24 mo, Tumor Site: Type of Lesion: Adrenal cortex: carcinoma (3/50 in high dose group vs 0 in all other groups)): active; positive. (department of pesticides regulation reviewer describes as a possible
- carcinogen call (Species: Rat, Strain/Sex: Sprague-Dawley/Male (50/Group), Route: Oral, Dose: 0, 2000, 8000, 20,000 ppm of 96.5% glyphosate, isopropylamine salt in diet for 24 mo, study duration 24 mo, Dose: 0, 2000, 8000, 20,000 ppm of 96.5% glyphosate, isopropylamine salt in diet for 24 mo, study duration 24 mo): inactive; negative

Compound: CCCCN(N=O)C1CCC(=O)O1 (stereo not drawn)
- carcinogen call (Species: RAT, Strain/Sex: F344/MALE, Route: SUBCUTANEOUS, Dose: 38 UMOL/KG IN OLIVE OIL 1/WK FOR 10 WK, Tumor Site: Type of Lesion: INJECTION SITE: MALIGNANT FIBROUS HISTIOCYTOMA, LUNG: ADENOMA): active; positive

Compound: O=C1c2ccccc2C(=O)N1SC(Cl)(Cl)Cl
- carcinogen call (Species: MOUSE, Strain/Sex: B6C3F1/FEMALE, Route: ORAL, Dose: 0, 1000, 5000, 10000 PPM IN DIET FOR 104 WK (STUDY DURATION: 104 WK), Dose: 0, 1000, 5000, 10000 PPM IN DIET FOR 104 WK (STUDY DURATION: 104 WK), Tumor Site: Type of Lesion: DUODENUM: CARCINOMA OR ADENOMA): active; positive
- carcinogen call (Species: MOUSE, Strain/Sex: B6C3F1/MALE, Route: ORAL, Dose: 0, 1000, 5000, 10000 PPM IN DIET FOR 104 WK (STUDY DURATION: 104 WK), Dose: 0, 1000, 5000, 10000 PPM IN DIET FOR 104 WK (STUDY DURATION: 104 WK), Tumor Site: Type of Lesion: NON-GLANDULAR STOMACH: PAPILLOMA OR SQUAMOUS CELL CARCINOMA, DUODENUM: CARCINOMA OR ADENOMA): active; positive
- carcinogen call (Species: Mouse, Strain/Sex: B6C3F1/Female (52/Group), Route: Oral, Dose: 0, 1000, 5000/3500, 10,000/7000 ppm (doses reduced at wk 21) of 88-89% folpet in diet for 2 yr, study duration 2 yr, Dose: 0, 1000, 5000/3500, 10,000/7000 ppm (doses reduced at wk 21) of 88-89% folpet in diet for 2 yr, study duration 2 yr, Tumor Site: Type of Lesion: Stomach: papilloma and squamous cell carcinoma combined (2, 2, 5, 7). Duodenum: adenomas and carcinomas (1, 2, 10, 19).): active; positive
- carcinogen call (Species: Mouse, Strain/Sex: B6C3F1/Male (52/Group), Route: Oral, Dose: 0, 1000, 5000/3500, 10,000/7000 ppm (doses reduced at wk 21) of 88-89% folpet in diet for 2 yr, study duration 2 yr, Dose: 0, 1000, 5000/3500, 10,000/7000 ppm (doses reduced at wk 21) of 88-89% folpet in diet for 2 yr, study duration 2 yr, Tumor Site: Type of Lesion: Stomach: papilloma and squamous cell carcinoma combined (0, 2, 6, 3). Duodenum: adenomas and carcinomas (0, 4, 17, 25)): active; positive
- carcinogen call (Species: Rat, Strain/Sex: Strain not specified in Department of Pesticides Regulation report /Female (60/Group), Route: Oral, Dose: 0, 200, 800, 3200 ppm of 89.5% folpet in diet for 105 wk, study duration 105 wk, Dose: 0, 200, 800, 3200 ppm of 89.5% folpet in diet for 105 wk, study duration 105 wk): inactive; negative
- carcinogen call (Species: Rat, Strain/Sex: Strain not specified in Department of Pesticides Regulation report /Male (60/Group), Route: Oral, Dose: 0, 200, 800, 3200 ppm of 89.5% folpet in diet for 105 wk, study duration 105 wk, Dose: 0, 200, 800, 3200 ppm of 89.5% folpet in diet for 105 wk, study duration 105 wk): inactive; negative. increased incidence of thyroid tumors judged by reviewers as equivocal

Compound: CCCNC(=O)NS(=O)(=O)c1ccc(Cl)cc1
- carcinogen call (Species: MOUSE, Strain/Sex: B6C3F1/FEMALE, Route: ORAL, Dose: 0, 3317, 6635 PPM IN DIET, Dose: 0, 3317, 6635 PPM IN DIET): inactive; negative
- carcinogen call (Species: MOUSE, Strain/Sex: B6C3F1/MALE, Route: ORAL, Dose: 0, 3317, 6635 PPM IN DIET, Dose: 0, 3317, 6635 PPM IN DIET): inactive; negative
- carcinogen call (Species: RAT, Strain/Sex: F344/FEMALE, Route: ORAL, Dose: 0, 3000, 6000 PPM IN DIET, Dose: 0, 3000, 6000 PPM IN DIET): inactive; negative
- carcinogen call (Species: RAT, Strain/Sex: F344/MALE, Route: ORAL, Dose: 0, 3000, 6000 PPM IN DIET, Dose: 0, 3000, 6000 PPM IN DIET): inactive; negative

Compound: O=[N+]([O-])c1ccc2ncccc2c1
- carcinogen call (Species: RAT, Strain/Sex: F344/MALE,FEMALE, Route: ORAL, Dose: 0.05% IN DIET FOR 2 YR): inactive; negative

Compound: O=NN(CCO)C(=O)NCCCl
- carcinogen call (Species: RAT, Strain/Sex: F344/FEMALE, Route: ORAL, Dose: 0, 42 MG/L IN DRINKING WATER 5 D/WK FOR 30 WK (STUDY DURATION: LIFETIME), Tumor Site: Type of Lesion: LIVER: TUMOR, UTERUS: TUMOR, SKIN: TUMOR, Tumor Site: Type of Lesion: LIVER: TUMOR, UTERUS: TUMOR, SKIN: TUMOR): active; positive
- carcinogen call (Species: RAT, Strain/Sex: F344/MALE, Route: ORAL, Dose: 0, 42 MG/L IN DRINKING WATER 5 D/WK FOR 30 WK (STUDY DURATION: LIFETIME), Tumor Site: Type of Lesion: LIVER: TUMOR, LUNG: TUMOR, MESOTHELIUM: TUMOR, SKIN: TUMOR, Tumor Site: Type of Lesion: LIVER: TUMOR, LUNG: TUMOR, MESOTHELIUM: TUMOR, SKIN: TUMOR): active; positive

Compound: Cc1cccc(OCC(O)CNC(C)(C)C)c1[N+](=O)[O-] (stereo not drawn)
- carcinogen call (Species: RAT, Strain/Sex: WISTAR/FEMALE, Route: ORAL, Dose: 0, 25, 50, 100 MG/KG DAILY BY GAVAGE FOR 3 OR 6 MO, Dose: 0, 25, 50, 100 MG/KG DAILY BY GAVAGE FOR 3 OR 6 MO, Tumor Site: Type of Lesion: LIVER: NEOPLASTIC NODULE, HEPATOCELLULAR CARCINOMA): active; positive

Compound: OC[C@@H](O)[C@@H](O)CO
- carcinogen call (Species: DOG, Strain/Sex: BEAGLE/FEMALE, Route: ORAL, Dose: 0, 2, 5, 10% IN DIET FOR 53 WK (STUDY DURATION: 53 WK), Dose: 0, 2, 5, 10% IN DIET FOR 53 WK (STUDY DURATION: 53 WK)): inactive; negative
- carcinogen call (Species: DOG, Strain/Sex: BEAGLE/MALE, Route: ORAL, Dose: 0, 2, 5, 10% IN DIET FOR 53 WK (STUDY DURATION: 53 WK), Dose: 0, 2, 5, 10% IN DIET FOR 53 WK (STUDY DURATION: 53 WK)): inactive; negative
- carcinogen call (Species: RAT, Strain/Sex: WISTAR/FEMALE, Route: ORAL, Dose: 0, 2, 5, 10% IN DIET FOR 104 WK (STUDY DURATION: 104 WK), Dose: 0, 2, 5, 10% IN DIET FOR 104 WK (STUDY DURATION: 104 WK)): inactive; negative
- carcinogen call (Species: RAT, Strain/Sex: WISTAR/MALE, Route: ORAL, Dose: 0, 2, 5, 10% IN DIET FOR 104 WK (STUDY DURATION: 104 WK), Dose: 0, 2, 5, 10% IN DIET FOR 104 WK (STUDY DURATION: 104 WK)): inactive; negative

Compound: CC(=O)CNCC(O)C(O)N=O (stereo not drawn)
- carcinogen call (Species: RAT, Strain/Sex: F344/FEMALE, Route: ORAL, Dose: 0, 15, 60 MG/L DRINKING WATER 5 D/WK FOR 31, 24 WK (TOTAL DOSE 47; 144 MG) (STUDY DURATION: LIFESPAN), Dose: 0, 15, 60 MG/L DRINKING WATER 5 D/WK FOR 31, 24 WK (TOTAL DOSE 47; 144 MG) (STUDY DURATION: LIFESPAN), Tumor Site: Type of Lesion: ESOPHAGUS: CARCINOMA, PAPILLOMA, FORESTOMACH: CARCINOMA, PAPILLOMA, LUNG: TUMOR, TONGUE: CARCINOMA, PAPILLOMA, Tumor Site: Type of Lesion: ESOPHAGUS: CARCINOMA, PAPILLOMA, FORESTOMACH: CARCINOMA, PAPILLOMA, LUNG: TUMOR, TONGUE: CARCINOMA, PAPILLOMA): active; positive

Compound: CCNC(=S)NCC
- carcinogen call (Species: MOUSE, Strain/Sex: B6C3F1/FEMALE, Route: ORAL, Dose: 0, 250, 500 PPM IN DIET, Dose: 0, 250, 500 PPM IN DIET): inactive; negative
- carcinogen call (Species: MOUSE, Strain/Sex: B6C3F1/MALE, Route: ORAL, Dose: 0, 250, 500 PPM IN DIET, Dose: 0, 250, 500 PPM IN DIET): inactive; negative
- carcinogen call (Species: RAT, Strain/Sex: F344/FEMALE, Route: ORAL, Dose: 0, 125, 250 PPM IN DIET, Dose: 0, 125, 250 PPM IN DIET, Tumor Site: Type of Lesion: THYROID GLAND: FOLLICULAR CELL CARCINOMA OR FOLLICULAR CELL ADENOMA): active; positive
- carcinogen call (Species: RAT, Strain/Sex: F344/MALE, Route: ORAL, Dose: 0, 125, 250 PPM IN DIET, Dose: 0, 125, 250 PPM IN DIET, Tumor Site: Type of Lesion: THYROID GLAND: FOLLICULAR CELL CARCINOMA OR FOLLICULAR CELL ADENOMA): active; positive
